What all share (assay): NCI anticancer screen, dose series, 48 h
Assay [1] deals with HOP-92 NSCLC.
Assay [2] deals with MOLT-4 leukemia.
Assay [3] has as its system OVCAR-3 ovarian.
For assay [4], the system named is 786-0 renal.
Assay [5] relates to HS 578T breast.
Assay [6] deals with OVCAR-8 ovarian.
Assay [7] relates to SF-268 CNS.
Assay [8] has as its system HL-60(TB) leukemia.
The test system of assay [9] is ACHN renal.
The subject of assay [10] is SF-295 CNS.

“And” between values parts separate entries of the source, which are not always exact repeats. Equal values may be shown once.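 Assay format: 96-well plates, 48-hour exposure. Here, GI50 denotes the concentration required for 50% inhibition of growth. TGI: concentration producing complete growth inhibition.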

As to `CC(C)=CCc1c(O)c(C(=O)CC(C)C)c(O)c2c(-c3ccccc3)cc(=O)oc12`, the GI50 in assay [1] was 1.04 µM; in assay [2] it was 10.3 µM; in [3] it was 4.33 µM; in assay [4] it was 10.7 µM; in assay [5], 9.75 µM; in [6] it was 8.98 µM. The GI50 was 12.5 µM in assay [7], 7.82 µM in [8], 5.85 µM in assay [9] and 10 µM in assay [10]. The TGI in [1] was 4.84 µM; in assay [2], more than 50 µM; in assay [3], more than 50 µM; in assay [4] it was more than 50 µM; in assay [5], 49.9 µM; in [6], more than 50 µM. The TGI was more than 50 µM in [7], 27.7 µM in [8], more than 50 µM in [9] and 43.5 µM in [10].

In the case of `NC(N)=NC(N)=Nc1ccc(S(N)(=O)=O)cc1`, the TGI in [1], in assay [2], in assay [3], in assay [4], in assay [5] and in [6] was more than 100 µM throughout. Moreover, the TGI in assay [7], in assay [8], in [9] and in [10] was more than 100 µM each time.

`CNC(=S)N(C1CCCCC1)C1CCCCC1`: the TGI in assay [1] is more than 100 µM; in [2], more than 100 µM; in [3], more than 100 µM; in assay [4] it was more than 100 µM; in assay [5], 98.8 µM; in [6], more than 100 µM. The TGI in [7], in assay [8], in assay [9] and in assay [10] was more than 100 µM each time.

Consider `Clc1ccc(COC(Cn2ccnc2)c2ccc(Cl)cc2Cl)c(Cl)c1` (configuration not stated), for which the GI50 in [1] is 1.74 µM; in assay [3], 5.35 µM; in assay [4], 4.2 µM; in [5], 5.49 µM; in assay [6] it was 4.21 µM; in [7], 7.87 µM. Also, the GI50 was 2.34 µM in assay [8], 4.51 µM in assay [9] and 2.29 µM in assay [10]. Moreover, the TGI in assay [1] is 8.44 µM and 27.1 µM; in assay [2], 15.1 µM and 22.2 µM and 13.9 µM; in assay [3], 17.1 µM and 25 µM and 21.5 µM; in assay [4], 14.5 µM and 21 µM and 22.9 µM; in assay [5] it was 24 µM and 32 µM; in [6], 27.3 µM and 36.9 µM and 22.1 µM. For the same compound, the TGI in assay [7] was 24.9 µM and 26.9 µM and 28.6 µM; in assay [8], 6.21 µM and 17 µM and 7.02 µM; in assay [9] it was 16.1 µM and 30.1 µM and 24.6 µM; in [10] it was 8.73 µM and 23.7 µM and 23.8 µM.

With `O=C1CCC(N2C(=O)c3cccc(NCCOCCOCCNC(=O)c4cc5c(o4)C(=O)c4ccccc4C5=O)c3C2=O)C(=O)N1` (configuration not stated), the GI50 in assay [1] is 3.27 µM; in assay [2] it was 2.73 µM; in assay [3] it was 0.295 µM; in [4], 3.14 µM; in assay [5] it was 2.4 µM; in assay [6], 2.04 µM. Further, the GI50 in [7] was 2.18 µM; in [8] it was 2.1 µM; in [9], 2.3 µM; in assay [10], 1.68 µM. Also, the TGI in assay [1] was 12.5 µM; in assay [2] it was 7.11 µM; in assay [3], 1.03 µM; in assay [4], 10.9 µM; in [5], 7.76 µM; in [6], 10.5 µM. For the same compound, the TGI in assay [7] worked out at 5.72 µM; in assay [8], 6.82 µM; in [9] it was 6.62 µM; in assay [10], 3.08 µM.

For the compound `CCOC(=O)C(=O)C(/C(=N/N(C)C)C(=O)Nc1ccc(C)cc1C)c1nc2ccccc2[nH]c1=O` (configuration not stated), the TGI in [1], in [2], in assay [3], in assay [4], in assay [5] and in assay [6] was more than 100 µM throughout. In addition, the TGI in assay [7], in [8], in [9] and in assay [10] was more than 100 µM in each case.

`Cc1cc(C)c(O)c(CNCCCNCc2cc(C)cc(C)c2O)c1`: the GI50 in [1] is 1.94 µM; in [2] it was 3.14 µM; in assay [3], 3.82 µM; in [4], 4.69 µM; in [5], 2.05 µM; in assay [6], 5.09 µM. Also, the GI50 in assay [7] is 5.97 µM; in [8] it was 2.33 µM; in assay [9], 3.55 µM; in [10], 1.87 µM. Further, the TGI is 7.23 µM in [1]; 10.2 µM in assay [2]; 15 µM in assay [3]; 18.7 µM in [4]; 5.03 µM in assay [5]; 20.3 µM in assay [6]. For the same compound, the TGI in [7] came out at 21.2 µM; in [8], 4.75 µM; in assay [9] it was 10.8 µM; in assay [10], 3.81 µM.

`CCC1(N)C(=O)OCc2c1cc1n(c2=O)Cc2cc3ccccc3nc2-1` (configuration not stated): the GI50 in [1] is 28.4 µM; in [2] it was 1.83 µM; in [3], 17.2 µM; in [4] it was 3.31 µM; in [5], more than 69.6 µM; in [6], 12 µM. Further, the GI50 in [8] is 4.44 µM; in [9], 2.75 µM; in assay [10], 3.45 µM. For the same compound, the TGI is > 100 µM and 99 µM in assay [1]; more than 41.7 µM in assay [2]; 42.6 µM and > 100 µM in assay [3]; 49.8 µM and > 54.6 µM in assay [4]; more than 100 µM in [5]; more than 72.4 µM in [6]. Moreover, the TGI in assay [7] was more than 100 µM; in [9] it was 12.2 µM and 21.3 µM; in [10], 50.2 µM and > 100 µM.

For the compound `C#CCN(Cc1nc2cc(C(F)(F)F)ccc2nc1-c1ccccc1)c1ccc(F)cc1`, the GI50 in assay [1] is 24 µM; in assay [2] it was 36.5 µM; in assay [3], 29.8 µM; in [4], 20.4 µM; in assay [5], 34.7 µM; in assay [6], 29.4 µM. Moreover, the GI50 in [7] was 37.9 µM; in assay [8], 21.8 µM; in assay [9], 36 µM; in assay [10], 51.4 µM. In addition, the TGI in assay [1] was 86.8 µM; in [2], more than 100 µM; in [3], more than 100 µM; in assay [4], 54 µM; in assay [5], more than 100 µM; in [6], more than 100 µM. Moreover, the TGI in assay [7], in assay [8], in assay [9] and in [10] was more than 100 µM throughout.

These data come from PubChem BioAssay (NCI).
